Test systems include KM12; HOP-62; SNB-19; 786-0; MOLT-4; Hs-578T; MDA-N; PC-3; CCRF-CEM; A549; BT-549; MDA-MB-435; CAKI-1; SK-MEL-5; EKVX; NCI-H522; TK-10; MDA-MB-231; HCC 2998; Malme-3M.
What all share (assay): NCI tumour cell line growth inhibition, 48 h

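Step 1: Grow cells in 96-well plates. Step 2: Expose to compound for 48 hours at 5 concentrations. Step 3: Interpolate endpoints linearly; if unreached, use highest concentration. GI50 is the concentration that inhibits growth by half.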 Calls of active or inactive are those of the source. No stated cut-off is given here; in the data, active = GI50 up to about 1.1 µM and inactive = higher.

Consider `Cc1nn(-c2ccccc2)c2c1CC(=O)Nc1ccccc1-2`, for which the GI50 in the assay with KM12 is 0.571 µM (active); with HOP-62 it was 3.15 µM (inactive); in the assay on SNB-19, 2.55 µM (inactive); in the assay on 786-0 it was 0.951 µM (active); with MOLT-4, 0.522 µM (active); in the assay on Hs-578T, 0.522 µM (active). Besides, the GI50 with MDA-N is 0.187 µM (active); in the assay with PC-3, 0.679 µM (active); in the assay with CCRF-CEM, 0.44 µM (active); with A549, 1.61 µM (inactive); in the assay with BT-549, 0.687 µM (active); in the assay with MDA-MB-435 it was 0.204 µM (active). For the same compound, the GI50 in the assay with CAKI-1 was 2.82 µM (inactive); in the assay with SK-MEL-5, 0.379 µM (active); in the assay with EKVX, 9.66 µM (inactive); in the assay on NCI-H522 it was 0.509 µM (active); with TK-10, 0.566 µM (active); with MDA-MB-231, 1.48 µM (inactive).
As to `CSc1ncc2c(n1)-c1ccccc1OC2NC1CC1` (centres undefined), the GI50 in the assay on KM12 is 73.5 µM (inactive); with SNB-19 it was > 100 µM (inactive); in the assay with 786-0, > 100 µM (inactive); in the assay with MOLT-4, 37.2 µM (inactive); in the assay on Hs-578T, 38.1 µM (inactive); in the assay on MDA-N it was > 100 µM (inactive). For the same compound, the GI50 in the assay on PC-3 is 50.7 µM (inactive); in the assay on CCRF-CEM it was 31.4 µM (inactive); with A549, > 100 µM (inactive); in the assay with BT-549, 38 µM (inactive); in the assay on MDA-MB-435, > 100 µM (inactive); in the assay on CAKI-1, 29.6 µM (inactive). Also, the GI50 with SK-MEL-5 was 78.3 µM (inactive); in the assay on EKVX it was 51.2 µM (inactive); in the assay on NCI-H522 it was 24.8 µM (inactive); in the assay on TK-10, 32.7 µM (inactive); with MDA-MB-231, > 100 µM (inactive).
In the case of `COc1ccc(CNc2nc3cc(C(F)(F)F)ccc3nc2C(=O)O)cc1OC`, the GI50 in the assay with KM12 is 32.1 µM (inactive); in the assay with HOP-62 it was 22 µM (inactive); in the assay on SNB-19, 29.6 µM (inactive); in the assay on 786-0, 32.9 µM (inactive); with MOLT-4 it was 22.8 µM (inactive); with MDA-N it was 36.5 µM (inactive). Besides, the GI50 in the assay with PC-3 was 27.5 µM (inactive); in the assay on HCC 2998 it was 36 µM (inactive); with CCRF-CEM, 18.4 µM (inactive); in the assay with A549, 35.6 µM (inactive); in the assay with BT-549 it was 41.2 µM (inactive); with MDA-MB-435 it was 26.7 µM (inactive). Besides, the GI50 in the assay on CAKI-1 was 28.6 µM (inactive); in the assay on SK-MEL-5 it was 20.8 µM (inactive); with EKVX, 31.8 µM (inactive); in the assay with MDA-MB-231 it was 32.5 µM (inactive).
In the case of `CC1(C)OC2COC(c3n[nH]c4c(=O)[nH]c(=O)[nH]c34)C2O1` (centres undefined), the GI50 with KM12, in the assay on HOP-62, in the assay on Malme-3M, in the assay with SNB-19, with 786-0 and in the assay on MOLT-4 was > 100 µM (inactive) throughout. Also, the GI50 in the assay on Hs-578T, in the assay on MDA-N, in the assay on PC-3, in the assay with A549, in the assay on BT-549 and in the assay with MDA-MB-435 was > 100 µM (inactive) in each case. For the same compound, the GI50 with CAKI-1, in the assay on SK-MEL-5, with EKVX, with NCI-H522, with TK-10 and in the assay with MDA-MB-231 was > 100 µM (inactive) throughout.
With `CC(C)=CC(C)C(C(O)CCC1(c2ccoc2)OCCO1)S(=O)(=O)c1ccccc1` (centres undefined), the GI50 in the assay with KM12, in the assay with HOP-62, in the assay on Malme-3M, with SNB-19, in the assay on 786-0 and in the assay on MDA-N was > 100 µM (inactive) in each case. The GI50 in the assay with PC-3, with HCC 2998, in the assay with CCRF-CEM, in the assay with A549, with BT-549 and in the assay on MDA-MB-435 was > 100 µM (inactive) throughout. The GI50 in the assay with CAKI-1, with SK-MEL-5, in the assay on EKVX, in the assay with NCI-H522, in the assay with TK-10 and in the assay on MDA-MB-231 was > 100 µM (inactive) each time.
Consider `CCCC(=O)Nc1cc(/C=C/C(=O)N2CC(CCl)c3c2cc([N+](=O)[O-])c2ccccc32)n(C)c1` (centres undefined), for which the GI50 in the assay with HOP-62 is > 35.1 µM (inactive); with SNB-19, > 100 µM (inactive); in the assay on 786-0, > 60.8 µM (inactive); in the assay with MOLT-4 it was 3.01 µM (inactive); in the assay with MDA-N, > 100 µM (inactive); with PC-3, 3.73 µM (inactive). The GI50 in the assay on HCC 2998 is 14.5 µM (inactive); in the assay on CCRF-CEM, 3.84 µM (inactive); with A549, 8.89 µM (inactive); in the assay on BT-549, > 73.3 µM (inactive); in the assay with MDA-MB-435, > 100 µM (inactive); in the assay with CAKI-1 it was 47.1 µM (inactive). The GI50 in the assay with SK-MEL-5 was > 47.3 µM (inactive); in the assay with NCI-H522 it was > 100 µM (inactive); in the assay on TK-10, > 100 µM (inactive); with MDA-MB-231, > 100 µM (inactive).
`S=C(c1c[nH]c2ccccc12)N1CCN(Cc2ccccc2)CC1`: the GI50 in the assay on KM12 was 17.2 µM (inactive); in the assay on HOP-62 it was 18.5 µM (inactive); in the assay with Malme-3M it was 19.5 µM (inactive); in the assay on SNB-19 it was 14.9 µM (inactive); in the assay with 786-0, 15.7 µM (inactive); in the assay with MOLT-4, 16.6 µM (inactive). In addition, the GI50 was 17.4 µM (inactive) with Hs-578T; 15.6 µM (inactive) in the assay on MDA-N; 15.7 µM (inactive) in the assay with PC-3; 27.2 µM (inactive) in the assay with CCRF-CEM; 14.7 µM (inactive) with BT-549; 15.5 µM (inactive) in the assay with MDA-MB-435. In addition, the GI50 in the assay on CAKI-1 was 20.1 µM (inactive); in the assay on SK-MEL-5 it was 12.1 µM (inactive); with EKVX, 18 µM (inactive); in the assay on TK-10 it was 26.4 µM (inactive); in the assay on MDA-MB-231 it was 17 µM (inactive).
In the case of `COc1ccc(-c2nc(SCC(=O)NNC(=S)Nc3ccccc3)[nH]c2-c2ccc(OC)cc2)cc1`, the GI50 is 24.9 µM (inactive) in the assay with KM12; 18.6 µM (inactive) with HOP-62; 52.2 µM (inactive) in the assay with Malme-3M; 21.8 µM (inactive) in the assay on SNB-19; 23.7 µM (inactive) in the assay with 786-0; 3.46 µM (inactive) in the assay on MOLT-4. Besides, the GI50 in the assay on MDA-N is 20.6 µM (inactive); in the assay with PC-3, 25.8 µM (inactive); in the assay with HCC 2998, 14 µM (inactive); with CCRF-CEM it was 22.7 µM (inactive); with A549 it was 31.5 µM (inactive); in the assay with BT-549 it was 24 µM (inactive). The GI50 in the assay with MDA-MB-435 is 18.2 µM (inactive); with CAKI-1, 34.3 µM (inactive); with SK-MEL-5, 14.9 µM (inactive); in the assay on EKVX it was 28.8 µM (inactive); in the assay with NCI-H522, 22.7 µM (inactive); in the assay on TK-10, 40.6 µM (inactive). In the assay with MDA-MB-231, the GI50 is 27.2 µM (inactive).
For `Cc1nn(-c2ccccc2)c2c1C(c1ccc(Cl)cc1)NC(=S)N2` (centres undefined), the GI50 in the assay on KM12 was 23.1 µM (inactive); in the assay on HOP-62, 16.1 µM (inactive); in the assay with Malme-3M, 28.2 µM (inactive); in the assay with SNB-19, 28.6 µM (inactive); in the assay on 786-0, 15.6 µM (inactive); in the assay on MOLT-4 it was 38.6 µM (inactive). Also, the GI50 in the assay on Hs-578T is 29 µM (inactive); in the assay on MDA-N, 29.4 µM (inactive); in the assay with PC-3, 18.9 µM (inactive); in the assay on CCRF-CEM it was 20.9 µM (inactive); in the assay with A549, 24.6 µM (inactive); with BT-549, 25.9 µM (inactive). The GI50 in the assay with MDA-MB-435 was 21.5 µM (inactive); in the assay with CAKI-1 it was 27.2 µM (inactive); in the assay with SK-MEL-5, 20.3 µM (inactive); in the assay on EKVX, 25.8 µM (inactive); with NCI-H522, 14 µM (inactive); in the assay with TK-10 it was 18.7 µM (inactive). Also, the GI50 with MDA-MB-231 is 16.5 µM (inactive).
With `O=C(Nc1ccc2nc(O)n[n+]([O-])c2c1)C(F)(F)F`, the GI50 in the assay on KM12, with HOP-62, in the assay with SNB-19, in the assay on 786-0, in the assay on MOLT-4 and in the assay on Hs-578T was > 100 µM (inactive) throughout. The GI50 in the assay with MDA-N, in the assay on PC-3, in the assay on CCRF-CEM, in the assay on A549, in the assay with BT-549 and in the assay on MDA-MB-435 was > 100 µM (inactive) in each case. Moreover, the GI50 with CAKI-1, in the assay on SK-MEL-5, in the assay with EKVX, in the assay on NCI-H522, in the assay with TK-10 and with MDA-MB-231 was > 100 µM (inactive) throughout.
In the case of `O=C1CC(c2ccccc2)C2(C(=O)NC(=S)NC2=O)C(c2ccccc2)C1` (centres undefined), the GI50 in the assay on KM12 is > 75 µM (inactive); in the assay on HOP-62 it was > 75 µM (inactive); in the assay with Malme-3M it was > 75 µM (inactive); with SNB-19, > 75 µM (inactive); in the assay with 786-0, > 75 µM (inactive); with MOLT-4 it was 27.3 µM (inactive). For the same compound, the GI50 is > 75 µM (inactive) in the assay on MDA-N; > 75 µM (inactive) in the assay on PC-3; > 75 µM (inactive) with HCC 2998; > 75 µM (inactive) in the assay with CCRF-CEM; > 75 µM (inactive) in the assay on BT-549; 55.8 µM (inactive) with MDA-MB-435. In addition, the GI50 in the assay with CAKI-1, with SK-MEL-5, in the assay with EKVX, in the assay on NCI-H522, in the assay with TK-10 and in the assay on MDA-MB-231 was > 75 µM (inactive) throughout.

Source of the values: ChEMBL document CHEMBL1201862, “PubChem BioAssay data set” (2004).
